According to patent US8901118B2, “Compounds and methods for kinase modulation, and indications therefor” (Plexxikon Inc., priority 2010, dated 2014):

Legend:
BCR-KIT BaF3 cells = biological target: T1, BCR-KIT BaF3 cells (Homo sapiens, UniProt P10721); assay: BaF3 BCR-KIT cell proliferation assay (ATPlite); assay type: cell-based; conditions: read-out: Inhibition of Cell Proliferation IC50, BCR/BaF3 Kit
T1 construct: fused on or other part: P11274 (Breakpoint cluster region protein)
Description: (§1) Compounds are assessed in a variety of cell based assays. For example BaF3 cells engineered with any of BCR-FMS, BCR-KIT, BCR-FLT3, BCR-NTRK1, BCR-NTRK2, and BCR-NTRK3, are used in cell proliferation assays to assess inhibitory activity of Fms, Kit, Flt-3, TrkA, TrkB, and TrkC, respectively. An MV-4-11 (leukemia) cell proliferation assay is used to assess inhibitory activity in Flt-3, and SKNSH (human neuroblastoma) cell proliferation assay is used to assess efficacy of Fms/Trk inhibitors. Additional cells may be assayed similarly to assess the efficacy of Fms/Trk inhibitors, such as MiaPaCa (human pancreatic cancer) and Capan-1 (human pancreatic carcinoma) cells. Reagent and assay conditions are as follows: • BaF3 cells: • Maintained in RPMI containing 10% FBS, 1% PenStrep, 1% NEAA, and 1% L-Glutamine, supplemented with 1 mg/mL G418 and 5% WEHI-CM (or recombinant murine IL-3). • Confluent cells are split 1:50 to 1:100 every 3-4 days. • MV-4-11 cells: • Maintained in Iscove's Modified Dulbecco's Medium containing 10% FBS. • Confluent cells are split 1:4 every 3-4 days. • SKNSH cells: RPMI containing 10% FBS. On day 1, cells are counted, then centrifuged in a conical tube for 5 minutes at 1000 rpm. The supernatant is removed and cells are re-suspended as follows: • BaF3: resuspend in growth media +1 mg/mL G418 (without WEHFIL-3) to 2×10^5 cells/mL. • MV-4-11: resuspend in growth media to 5×10^5 cells/mL. • SKNSH: resuspend in growth media to 2×10^4 cells/mL. The cells are plated (50 μL, 150 μL for SKNSH cells) in each well of a 96-well dish (Corning 3610) and incubated at 37° C. in 5% CO2 overnight, cells plated to a final concentration of cells as follows: • BaF3: 10,000 cells per well. • MV-4-11: 25,000 cells per well. • SKNSH: 3,000 cells per well. On day 2, compound at a maximum concentration of 5 mM is serially diluted 1:3 for a total of 8 point titration with DMSO as a control. A 1 μL aliquot of each dilution point is added to 249 μL growth media and 50 μL is added to a well containing cells, providing 10 μM compound for the maximum concentration point. The cells are incubated for 3 days at 37° C. in 5% CO2. For SKNSH cells, a 0.75 μL aliquot of appropriate dilution in DMSO is added to 150 μL of cells. On day 5, ATPlite 1 step Luminescence Assay System (Perkin Elmer #6016739) is brought to room temperature along with the cell cultures. ATPlite is added to each well as follows: • BaF3: 25 μL per well. • MV-4-11: 40 μL per well. • SKNSH: 20 μL per well. The cells are incubated at room temperature for 10 minutes, then luminescence is read on Safire reader. The measured luminescence correlates directly with cell number, such that the reading as a function of compound concentration is used to determine the IC50 value.
(§2) It is understood that the results of these assays may vary as assay conditions are varied. Inhibition levels determined under the conditions described herein represent a relative activity for the compounds tested under the specific conditions employed. The cell based assays are likely to show variability due to the complexity of the system and the sensitivity thereof to any changes in the assay conditions. […] Results for compounds that are tested and show substantially no inhibition below the highest tested concentration are represented as “-” in the tables below. In some instances, the compounds were not tested in all of the assays, or assay results were not valid, as indicated by NA in the tables below.

BCR-NTRK1 BaF3 cells = biological target: T2, BCR-NTRK1 BaF3 cells (Homo sapiens, UniProt P04629); assay: BaF3 BCR-NTRK1 cell proliferation assay (ATPlite); assay type: cell-based; conditions: read-out: Inhibition of Cell Proliferation IC50, BCR/BaF3 TrkA
T2 construct: fused on or other part: P11274 (Breakpoint cluster region protein)
Description: as §1, §2

CYP2C9 = CYP2C9 (Homo sapiens, UniProt P11712); assay: CYP2C9 inhibition (fluorescent substrate MFC); assay type: in vitro ADME; conditions: read-out: Cyp IC50 2C9
Description: CYP (Cytochrome P450) enzymes are the major drug metabolizing enzymes present in the liver. The inhibition of CYP enzyme activity (IC50) for each of CYP1A2, CYP2C19, CYP2C9, CYP2D6, CYP3A4(BFC) and CYP3A4(BQ) is determined for compounds, where inhibition of metabolism of a known substrate leads to a decrease in the fluorescence of the metabolized product. The fluorescence of the product is monitored as a function of compound concentration. Compounds are dissolved in DMSO to a concentration of 100 mM. These are diluted 1 μL into 82 μL of acetonitrile. An 11 μL aliquot of this solution is then added to 204 μL of cofactor mix (1.3% NADPH Regeneration system Solution A, 1.04% NADPH Regeneration system Solution B from BD Biosciences, 5% acetonitrile and 0.05% DMSO). These are then serially diluted 1:1 (160 μL to 160 μL co-factor mix) for a total of 10 points. A 10 μL aliquot of this final mixture is dispensed into 384 well assay plates and incubated for 10 minutes at 37° C. […] Assay plates are incubated at 37° C. (CYP1A2-15 min; CYP2C9-45 min; CYP2C19, 2D6 and 3A4-30 min) and read in a Tecan Safire 2 plate reader (CYP1A2, 2C19 and 3A4 409 ex/460 em; CYP2C9 and 2D6 409 ex/530 em). The signal versus compound concentration is used to determine the IC50. The enzymes and substrates for this assay are obtained from BD Biosciences.

BCR-NTRK2 BaF3 cells = biological target: T3, BCR-NTRK2 BaF3 cells (Homo sapiens, UniProt Q16620); assay: BaF3 BCR-NTRK2 cell proliferation assay (ATPlite); assay type: cell-based; conditions: read-out: Inhibition of Cell Proliferation IC50, BCR/BaF3 TrkB
T3 construct: fused on or other part: P11274 (Breakpoint cluster region protein)
Description: as §1, §2

T1 sequence (P10721 589-937): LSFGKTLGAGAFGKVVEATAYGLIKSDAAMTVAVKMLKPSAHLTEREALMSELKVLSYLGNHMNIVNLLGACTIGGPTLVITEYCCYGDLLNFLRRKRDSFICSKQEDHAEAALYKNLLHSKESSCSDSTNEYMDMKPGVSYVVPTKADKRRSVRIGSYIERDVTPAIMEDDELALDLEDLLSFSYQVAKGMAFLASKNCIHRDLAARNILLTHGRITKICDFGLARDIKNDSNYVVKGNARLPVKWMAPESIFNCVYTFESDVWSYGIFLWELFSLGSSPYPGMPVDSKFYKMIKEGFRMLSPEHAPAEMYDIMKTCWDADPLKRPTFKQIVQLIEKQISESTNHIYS
T2 sequence (P04629 510-781): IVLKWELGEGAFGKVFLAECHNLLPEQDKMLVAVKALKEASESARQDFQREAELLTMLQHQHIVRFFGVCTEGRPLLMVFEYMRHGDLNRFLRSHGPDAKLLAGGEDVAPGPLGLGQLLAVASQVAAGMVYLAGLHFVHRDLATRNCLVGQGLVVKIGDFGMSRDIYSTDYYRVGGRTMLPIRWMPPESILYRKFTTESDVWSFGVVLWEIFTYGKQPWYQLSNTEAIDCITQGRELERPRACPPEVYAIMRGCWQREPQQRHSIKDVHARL
T3 sequence (Q16620 538-807): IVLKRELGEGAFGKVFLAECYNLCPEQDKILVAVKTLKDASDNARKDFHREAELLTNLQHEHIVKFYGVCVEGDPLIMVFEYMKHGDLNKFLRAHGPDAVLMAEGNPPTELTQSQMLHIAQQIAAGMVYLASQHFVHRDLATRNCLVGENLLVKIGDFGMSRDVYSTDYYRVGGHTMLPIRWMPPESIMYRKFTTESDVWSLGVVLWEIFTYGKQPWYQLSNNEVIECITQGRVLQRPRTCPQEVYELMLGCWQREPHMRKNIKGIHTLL
CYP2C9, sequence (P11712 whole entry): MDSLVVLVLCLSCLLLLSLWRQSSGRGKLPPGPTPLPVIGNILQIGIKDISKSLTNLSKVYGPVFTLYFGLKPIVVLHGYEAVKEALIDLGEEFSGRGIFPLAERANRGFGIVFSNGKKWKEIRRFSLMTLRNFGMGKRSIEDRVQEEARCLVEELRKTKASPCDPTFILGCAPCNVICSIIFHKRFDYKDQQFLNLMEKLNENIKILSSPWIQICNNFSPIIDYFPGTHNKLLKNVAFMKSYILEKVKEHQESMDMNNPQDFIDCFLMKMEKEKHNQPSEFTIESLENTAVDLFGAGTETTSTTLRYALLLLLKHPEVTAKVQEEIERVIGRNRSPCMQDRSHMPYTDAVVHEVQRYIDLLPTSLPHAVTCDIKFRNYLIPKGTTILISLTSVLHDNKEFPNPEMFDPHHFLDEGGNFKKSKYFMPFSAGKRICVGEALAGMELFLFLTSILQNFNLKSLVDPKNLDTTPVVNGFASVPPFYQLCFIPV

SMILES	IC50 (BCR-KIT BaF3 cells)	IC50 (BCR-NTRK1 BaF3 cells)	IC50 (CYP2C9)	IC50 (BCR-NTRK2 BaF3 cells)
COc1ccc(Nc2ccc(C(=O)c3c[nH]c4ncnc(NC5CCC5)c34)c(F)n2)cn1 [Compound P-4076, [4-(cyclobutylamino)-7H-pyrrolo[2,3-d]pyrimidin-5-yl]-[2-fluoro-6-[(6-methoxy-3-pyridyl)amino]-3-pyridyl]methanone]	< 0.1 µM	< 0.01 µM	> 10 µM	< 0.01 µM
CCC(CC)Nc1ncnc2[nH]cc(C(=O)c3ccc(Nc4ccc(OC)nc4)nc3F)c12 [Compound P-4077, [4-(1-ethylpropylamino)-7H-pyrrolo[2,3-d]pyrimidin-5-yl]-[2-fluoro-6-[(6-methoxy-3-pyridyl)amino]-3-pyridyl]methanone]	< 0.1 µM	< 0.01 µM	> 10 µM	< 0.01 µM
CCC(C)Nc1ncnc2[nH]cc(C(=O)c3ccc(Nc4ccc(OC)nc4)nc3F)c12 (stereo not shown) [Compound P-4078, [2-fluoro-6-[(6-methoxy-3-pyridyl)amino]-3-pyridyl]-[4-(sec-butylamino)-7H-pyrrolo[2,3-d]pyrimidin-5-yl]methanone]	< 0.1 µM	< 0.01 µM	> 10 µM	< 0.01 µM
COc1ccc(Nc2ccc(C(=O)c3c[nH]c4ncnc(NC5CCCCC5)c34)c(F)n2)cn1 [Compound P-4082, [4-(cyclohexylamino)-7H-pyrrolo[2,3-d]pyrimidin-5-yl]-[2-fluoro-6-[(6-methoxy-3-pyridyl)amino]-3-pyridyl]methanone]	< 0.1 µM	< 0.01 µM	> 10 µM	< 0.01 µM
O=C(c1ccc(NC2CCC(F)(F)CC2)nc1)c1c[nH]c2ncnc(NCC(F)(F)F)c12 [Compound P-4087, [6-[(4,4-difluorocyclohexyl)amino]-3-pyridyl]-[4-(2,2,2-trifluoroethylamino)-7H-pyrrolo[2,3-d]pyrimidin-5-yl]methanone]	> 1 µM	< 1 µM	> 10 µM	< 0.1 µM

Results, then the compound that gave them:

IC50 (BCR-KIT BaF3 cells)	IC50 (BCR-NTRK1 BaF3 cells)	IC50 (CYP2C9)	IC50 (BCR-NTRK2 BaF3 cells)	SMILES
< 0.1 µM	< 0.01 µM	> 10 µM	< 0.01 µM	COCCCNc1ncnc2[nH]cc(C(=O)c3ccc(Nc4ccc(OC)nc4)nc3F)c12 [Compound P-4079, [2-fluoro-6-[(6-methoxy-3-pyridyl)amino]-3-pyridyl]-[4-(3-methoxypropylamino)-7H-pyrrolo[2,3-d]pyrimidin-5-yl]methanone]
< 0.1 µM	< 0.01 µM	> 10 µM	< 0.01 µM	CCCCNc1ncnc2[nH]cc(C(=O)c3ccc(Nc4ccc(OC)nc4)nc3F)c12 [Compound P-4080, [4-(butylamino)-7H-pyrrolo[2,3-d]pyrimidin-5-yl]-[2-fluoro-6-[(6-methoxy-3-pyridyl)amino]-3-pyridyl]methanone]
< 0.1 µM	< 0.01 µM	> 10 µM	< 0.01 µM	CCNc1ncnc2[nH]cc(C(=O)c3ccc(Nc4ccc(OC)nc4)nc3F)c12 [Compound P-4081, [4-(ethylamino)-7H-pyrrolo[2,3-d]pyrimidin-5-yl]-[2-fluoro-6-[(6-methoxy-3-pyridyl)amino]-3-pyridyl]methanone]
< 0.1 µM	< 0.01 µM	> 10 µM	< 0.01 µM	CNc1ncnc2[nH]cc(C(=O)c3ccc(Nc4ccc(OC)nc4)nc3F)c12 [Compound P-4083, [2-fluoro-6-[(6-methoxy-3-pyridyl)amino]-3-pyridyl]-[4-(methylamino)-7H-pyrrolo[2,3-d]pyrimidin-5-yl]methanone]
< 1 µM	< 0.1 µM	> 10 µM	< 0.01 µM	COc1ccc(Nc2ccc(C(=O)c3c[nH]c4ncnc(NCC(F)(F)F)c34)c(F)n2)cn1 [Compound P-4084, [2-fluoro-6-[(6-methoxy-3-pyridyl)amino]-3-pyridyl]-[4-(2,2,2-trifluoroethylamino)-7H-pyrrolo[2,3-d]pyrimidin-5-yl]methanone]
